From ChEMBL document CHEMBL1201862, “PubChem BioAssay data set” (2004)
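Exposure lasted 48 hours, with cells grown in 96-well plates and compounds tested at five concentrations. Here, GI50 denotes the concentration required for 50% inhibition of growth.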 Active and inactive are the calls of the source. Cut-off read from the data, not from the text of the source: active = GI50 up to about 1.1 µM and inactive = higher.

Experiments:
Test in all cases: growth of human tumour cells (NCI), 48 h
[1] = test system: A549
[2] = test system: HCC 2998
[3] = test system: IGROV-1
[4] = test system: K562
[5] = test system: LOX IMVI
[6] = test system: M14
[7] = test system: M19-MEL
[8] = test system: MDA-N
[9] = test system: NCI-H23
[10] = test system: OVCAR-3
[11] = test system: OVCAR-8
[12] = test system: SF-268
[13] = test system: SF-539
[14] = test system: SNB-19
[15] = test system: SNB-75
[16] = test system: SR
[17] = test system: TK-10
[18] = test system: U-251
[19] = test system: UACC-62
[20] = test system: UO-31

| Compound | GI50 [1] | GI50 [2] | GI50 [3] | GI50 [4] | GI50 [5] | GI50 [6] | GI50 [7] | GI50 [8] | GI50 [9] | GI50 [10] | GI50 [11] | GI50 [12] | GI50 [13] | GI50 [14] | GI50 [15] | GI50 [16] | GI50 [17] | GI50 [18] | GI50 [19] | GI50 [20] |
| --- | --- | --- | --- | --- | --- | --- | --- | --- | --- | --- | --- | --- | --- | --- | --- | --- | --- | --- | --- | --- |
| C[n+]1c(Cl)cn2c3nc4ccccc4nc3c([O-])c(C#N)c21 | > 100 µM (inactive) | > 10 µM (inactive) | > 100 µM (inactive) | > 100 µM (inactive) | > 100 µM (inactive) | > 100 µM (inactive) | < 0.01 µM (active) | > 100 µM (inactive) | > 100 µM (inactive) | > 100 µM (inactive) | > 100 µM (inactive) | > 81.3 µM (inactive) | 9.31 µM (inactive) | > 100 µM (inactive) | > 54.6 µM (inactive) | > 74.8 µM (inactive) | > 10 µM (inactive) | > 100 µM (inactive) | > 92.7 µM (inactive) | > 100 µM (inactive) |
| C=C1C(=O)O[C@@H]2C[C@@H](C)[C@@H]3C=CC(=O)[C@@]3(C)[C@@H](O)[C@H]12 [HELENALIN] | 2.9 µM (inactive) | 1.51 µM (inactive) | 2.2 µM (inactive) | 0.622 µM (active) | 0.574 µM (active) | 1.98 µM (inactive) | 2.82 µM (inactive) | 2.08 µM (inactive) | 1.66 µM (inactive) | 1.52 µM (inactive) | 1.48 µM (inactive) | 3.5 µM (inactive) | 1.99 µM (inactive) | 2.58 µM (inactive) | 0.0352 µM (active) | 0.594 µM (active) | 4.05 µM (inactive) | 0.769 µM (active) | 1.39 µM (inactive) | 1.68 µM (inactive) |
| CC(C)=C1CCC(CN2CCOCC2)C1=O (centres undefined) | 20.4 µM (inactive) | 15.4 µM (inactive) | 20.3 µM (inactive) | 1.72 µM (inactive) | 19.9 µM (inactive) | 3.52 µM (inactive) | 22.1 µM (inactive) | 19.1 µM (inactive) | 17.7 µM (inactive) | 8.18 µM (inactive) | 7.55 µM (inactive) | 15.2 µM (inactive) | 17.4 µM (inactive) | 60.5 µM (inactive) | 4.72 µM (inactive) | 3.57 µM (inactive) | 6.21 µM (inactive) | 32.1 µM (inactive) | 17 µM (inactive) | 18.1 µM (inactive) |
| CC1=C(c2cc(C(=O)Nc3cc(C)ccc3C)nc(N)n2)Sc2ccccc2N1 | > 100 µM (inactive) | > 100 µM (inactive) | > 100 µM (inactive) | > 100 µM (inactive) | > 100 µM (inactive) | > 100 µM (inactive) | > 100 µM (inactive) |  | > 100 µM (inactive) | > 100 µM (inactive) | > 100 µM (inactive) | > 100 µM (inactive) | > 100 µM (inactive) | > 100 µM (inactive) | > 100 µM (inactive) | 65.8 µM (inactive) | > 100 µM (inactive) | > 100 µM (inactive) | > 100 µM (inactive) | > 100 µM (inactive) |
